# Where two headings read alike, the source gives them in different places. Where a SMILES comes first, the peptide text is derived from it. Bridges are numbered along the chain shown (N, C = ends).
# What was measured:
# [1] = format: physicochemical
# Procedure: (§1) To confirm it, we examined the solubility of NCR169 in various solvents, HEPES (salt-free), HEPES with salt (50 to 200 mM NaCl or KCl), and PBS. […] In other words, the disulfide bonds of NCR169 contribute to its solubility.
# Supplementary Figure S3. Solubility assessment of NCR169. The same amount of NCR169 was dissolved in various solvents. After incubation at room temperature for 1 h, the solution was centrifuged at 20,000 × g and the supernatant was analyzed by Tricine-SDS-PAGE. […]
# [2] = test system: Sinorhizobium meliloti; format: cell-based
# Procedure: (§2) Antimicrobial tests were performed using the drop plate method[12],[47]. Bacterial strains in the logarithmic phase (OD600 = 0.5–0.8) were diluted with 5 mM HEPES–KOH (pH 7.0) to a bacterial culture value of 1 × 10^6 CFU/mL. At OD600 = 0.1, the concentrations of S. meliloti and E. coli K-12 cells were 6.4 × 10^6 CFU/mL and 5.2 × 10^7 CFU/mL, respectively. Equal volumes of bacteria (S. meliloti or E. coli K-12) and NCR169 peptide or PMB were mixed and incubated at room temperature for 2 h. For antimicrobial tests against S. meliloti, 10 μL of each serially diluted mixture was spotted on MHB plates with 2.5 mM MgCl2, and 2.5 mM CaCl2, followed by incubation at 30 °C for 40 h. For antimicrobial tests against E. coli K-12, 10 μL of each mixture was spotted on Mueller Hinton Broth (MHB; MilliporeSigma, Burlington, MA, USA) plates followed by incubation at 30 °C for 13 h.
# (§3) To estimate survival rate, the peptide-treated bacterial mixtures were serially diluted with the buffer before spotting on the plate. Bacterial survival rates were calculated using the colony numbers of each bacterial strain with or without peptide treatment. All experiments were repeated at least four times.
# (§4) Supplementary Table S2. Antimicrobial activities of NCR169 peptides against E. coliK-12 and S. meliloti.
# (§5) Peptide IC50 (μM)* IC100 (μM)
# (§6) E. coli K-12 S. meliloti E. coli K-12 S. meliloti
# (§7) IC50: 50% inhibitory concentration (Calculated using “Dose-response curve” fitting)
# [3] = test system: Escherichia coli K-12; format: cell-based
# Procedure: as §2, §3, §4, §5, §6, §7
# [4] = Liposome sedimentation (binding) assay; conditions: peptide 20 μM, 2 mM DMPG liposomes, 20 mM HEPES, 150 mM NaCl, pH 7.0, 30 min room temperature, 200,000×g, supernatant and pellet by Tricine-SDS-PAGE
# Procedure: (§8) Figure 3 NCR169 binds to the bacterial phospholipid. (A) Circular dichroism (CD) spectra of NCR169 peptides (NCR169-ox1 and -ox2). NCR169 peptides (20 μM) were dissolved in the following solvents: water (No additives), 2 mM DMPC liposomes, 2 mM DMPG liposomes or 30% 2,2,2-trifluoroethanol (TFE). (B) The results of liposome binding assays. The NCR169 peptide (20 μM) was incubated with buffer (No lipid), 2 mM DMPC liposomes, or 2 mM DMPG liposomes. After incubation at room temperature for 30 min, the mixture was ultra-centrifuged at 200,000×g. The supernatant and pellet fractions were analyzed by Tricine-SDS-PAGE. The no lipid sample before ultra-centrifugation was used as the input.
# (§9) The phospholipids DMPC and DMPG were purchased from Avanti Polar Lipids (Alabaster, AL, USA). An appropriate amount of phospholipid was dissolved in chloroform and dried under vacuum for 1 h. The lipid film was suspended in water, vortexed, and sonicated for 30 min to form the liposomes.
# (§10) The assay was carried out as described previously. Briefly, equal volumes of NCR169 peptide (20 μM) and liposomes (2 mM) were mixed in assay buffer (20 mM HEPES, 150 mM NaCl, pH 7.0) and incubated for 30 min at room temperature, followed by ultracentrifugation at 200,000×g for 15 min at 20 °C. After centrifugation, the supernatant was collected, and the pellet was dissolved in the same volume of assay buffer containing 0.2% Triton X-100. The supernatant and pellet fractions were subjected to Tricine-SDS-PAGE, and peptides were detected by Coomassie Brilliant Blue staining.
# Supplementary Figure S11. NCR 169 M binds to the bacterial phospholipid. (A) Circular dichroism (CD) spectra of NCR169M (20 μM) in water (No additive), 2 mM dimyristoylphosphatidylcholine (DMPC) liposomes, 2 mM dimyristoylphosphatidylglycerol (DMPG) liposomes or 30% 2,2,2-trifluoroethanol (TFE). (B) The result of liposome binding assay. NCR169M (20 μM) was incubated with buffer (No lipid),2 mM DMPC liposomes, or 2 mM DMPG liposomes . After incubation at room temperature for 30 min, the mixture was ultra-centrifuged at 200,000 × g. The supernatant and pellet fractions were analyzed by Tricine-SDS-PAGE. The no lipidsample before ultra-centrifugation was used as the input.
# (also on this page, place not known: [θ] (103 deg cm2 dmol-1) markerkDa input No lipid sup ppt sup ppt sup ppt NCR169M lipid), DMPC 2 DMPG liposomes. lipid sample)
# (1 picture or pasted object on this page, not shown here)
# Supplementary Figure S12. The results of liposome binding assays. (A) NCR169-derived peptide (10 μM) was incubated with buffer (No lipid), 1 mM DMPC liposomes, 1 mM DMPG liposomes. After incubation at room temperature for 30 min, the mixture was ultra-centrifuged at 200,000 × g. The supernatant and pellet fractions were analyzed by Tricine-SDS-PAGE. The no lipid sample before ultra-centrifugation was used as the input. Arrows indicate weak bands. (B) […]
# [5] = format: physicochemical; conditions: pH 2.2
# Procedure: We further measured the circular dichroism (CD) spectra of NCR169-ox1 and -ox2 under various pH conditions to confirm their structural stability against pH (Supplementary Fig. S4). […] Because acidic pH is preferable for amide proton detection in NMR experiments, we performed the following solution NMR study at lower pH.
# CD spectra were recorded within a wavelength range of 270–195 nm using a JASCO J-820 spectropolarimeter (JASCO International Co., Ltd., Tokyo, Japan). A quartz cell with a light path length of 1 mm was used for the measurements. The sample temperature was maintained at 25 °C during the measurements.
# Supplementary Figure S4. Circular dichroism (CD) spectra of NCR169-ox1 and -ox2 under
# various pH conditions. The signal reflectingβ-sheet structure (218 nm) was hardly changed.
# [6] = Liposome sedimentation (binding) assay; conditions: peptide 20 μM, 2 mM DMPC liposomes, 20 mM HEPES, 150 mM NaCl, pH 7.0, 30 min room temperature, 200,000×g, supernatant and pellet by Tricine-SDS-PAGE
# Procedure: as §8, §9
# as §10, with “After centrifugation, the supernatant was collected, and the pellet was dissolved in the same volume of assay buffer containing 0.2% Triton X-100.” left out
# [7] = HPLC retention time as measure of surface hydrophobicity; format: physicochemical; conditions: C18 column, linear gradient 30 to 45% acetonitrile, 220 nm; compared with NCR169 oxidized forms
# Procedure: Figure 1 Sample preparation of NCR169 peptides. (A) High-performance liquid chromatography (HPLC) analyses of NCR169 peptides. Purified NCR169-ox1, NCR-ox2, NCR169-red, and reoxidized NCR169-red (NCR-red + GSSG) were analyzed by HPLC with a linear gradient of 30 to 45% acetonitrile and monitored at 220 nm. (B) MALDI-TOF–MS spectra of HPLC-purified NCR169-ox1 (upper), NCR169-ox2 (middle), and NCR169-red (lower). (C) Amino acid sequences of NCR169 peptides used in this study. The cysteine numbers (C1 to C4) are indicated in red on the sequence. The experimentally determined disulfide linkage patterns are indicated by connecting lines on the sequences. The first N-terminal residue, G (underlined), is the extra residue remaining after tag cleavage.
# as §1
# To prepare the reduced peptide (NCR169-red), NCR169-ox was reduced with 10 mM tris(2-carboxyethyl)phosphine (TCEP) at pH 10.5, followed by acidification using trifluoroacetate (TFA) and HPLC purification with a C18 column and 30–45% ACN gradient. The fractions were collected and dried under vacuum conditions. The purified peptides were confirmed using MALDI-TOF–MS.
SMILES,Solubility in various solvents [1],"IC50 ([2]; 2 h, pH 7)","IC100 ([2]; S. meliloti, drop plate method, 2 h treatment at room temperature, 5 mM HEPES-KOH pH 7.0)","IC100 ([3]; E. coli K-12, drop plate method, 2 h treatment at room temperature, 5 mM HEPES-KOH pH 7.0)","IC50 ([3]; K-12, 2 h, pH 7)",Binding to DMPG liposomes [4],Structural stability against pH (CD spectra) [5],Binding to DMPC liposomes [6],"Solubility in various solvents ([1]; 20 mM HEPES pH 7.0 salt-free, or with 50 to 200 mM NaCl or KCl, and PBS pH 7.4, 1 h room temperature, centrifuged 20,000 × g, supernatant by Tricine-SDS-PAGE)",HPLC retention time (hydrophobicity of molecular surface) [7]
"CC[C@H](C)[C@@H]1NC(=O)CNC(=O)[C@@H](NC(=O)[C@H](Cc2ccc(O)cc2)NC(=O)[C@H](CCCCN)NC(=O)[C@@H](NC(=O)[C@H](Cc2c[nH]cn2)NC(=O)CNC(=O)[C@@H](NC(=O)[C@H](CC(=O)O)NC(=O)[C@H](CCC(=O)O)NC(=O)CN)[C@@H](C)CC)[C@@H](C)CC)CSSC[C@@H]2NC(=O)[C@H](CCCCN)NC(=O)[C@H](Cc3c[nH]c4ccccc34)NC(=O)[C@H]([C@@H](C)CC)NC(=O)[C@H](CCCCN)NC(=O)[C@H](Cc3ccccc3)NC(=O)[C@H](CC(C)C)NC(=O)[C@@H]3CCCN3C(=O)[C@H](CCCCN)NC(=O)[C@H](CCCCN)NC(=O)[C@H](CO)NC(=O)[C@H](CCCCN)NC(=O)[C@H](Cc3ccc(O)cc3)NC(=O)[C@H](CSSC[C@@H](C(=O)N[C@H](C(=O)N[C@@H](CC(C)C)C(=O)N[C@@H](Cc3c[nH]c4ccccc34)C(=O)N[C@@H](Cc3ccc(O)cc3)C(=O)N[C@@H](CCCCN)C(=O)O)C(C)C)NC(=O)[C@H](C(C)C)NC(=O)[C@H](CC(N)=O)NC(=O)[C@H](CCC(=O)O)NC(=O)[C@H](C(C)C)NC2=O)NC(=O)[C@H](CC(=O)O)NC(=O)[C@H](CC(=O)O)NC(=O)[C@H](C(C)C)NC1=O [NCR169-ox2] (H-GEDIGHIKYCGIVDDCYKSKKPLFKIWKCVENVCVLWYK-OH; disulfide 10-29, 16-34)",soluble in all conditions,9.8 µM,128 µM,16 µM,3.4 µM,hardly binds,retained their conformations under acidic and neutral conditions,Neither NCR169-ox1 nor -ox2 bound,,
CC[C@H](C)[C@H](NC(=O)CNC(=O)[C@H](CS)NC(=O)[C@H](Cc1ccc(O)cc1)NC(=O)[C@H](CCCCN)NC(=O)[C@@H](NC(=O)[C@H](Cc1c[nH]cn1)NC(=O)CNC(=O)[C@@H](NC(=O)[C@H](CC(=O)O)NC(=O)[C@H](CCC(=O)O)NC(=O)CN)[C@@H](C)CC)[C@@H](C)CC)C(=O)N[C@H](C(=O)N[C@@H](CC(=O)O)C(=O)N[C@@H](CC(=O)O)C(=O)N[C@@H](CS)C(=O)N[C@@H](Cc1ccc(O)cc1)C(=O)N[C@@H](CCCCN)C(=O)N[C@@H](CO)C(=O)N[C@@H](CCCCN)C(=O)N[C@@H](CCCCN)C(=O)N1CCC[C@H]1C(=O)N[C@@H](CC(C)C)C(=O)N[C@@H](Cc1ccccc1)C(=O)N[C@@H](CCCCN)C(=O)N[C@H](C(=O)N[C@@H](Cc1c[nH]c2ccccc12)C(=O)N[C@@H](CCCCN)C(=O)N[C@@H](CS)C(=O)N[C@H](C(=O)N[C@@H](CCC(=O)O)C(=O)N[C@@H](CC(N)=O)C(=O)N[C@H](C(=O)N[C@@H](CS)C(=O)N[C@H](C(=O)N[C@@H](CC(C)C)C(=O)N[C@@H](Cc1c[nH]c2ccccc12)C(=O)N[C@@H](Cc1ccc(O)cc1)C(=O)N[C@@H](CCCCN)C(=O)O)C(C)C)C(C)C)C(C)C)[C@@H](C)CC)C(C)C [NCR169-red] (H-GEDIGHIKYCGIVDDCYKSKKPLFKIWKCVENVCVLWYK-OH),,,,,,,,,insoluble in all conditions except the salt-free buffer,longer than that of the NCR169 oxidized forms

# From publication PMC8110993, “Structure and antimicrobial activity of NCR169, a nodule-specific cysteine-rich peptide of Medicago truncatula” (Scientific Reports, 2021)
